Reference: PubChem BioAssay (NCI)
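All cell lines were grown in 96-well plates and treated with compound for 48 hours. Abbreviation: GI50, concentration required for 50% inhibition of growth. TGI: concentration producing complete growth inhibition.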

Test system: NCI-H23 lung
Experiment: NCI-60 cell line screen, 48 h

SMILES | GI50 [µM] | TGI [µM]
CC1(C)C(=O)/C(=C\c2cccnc2)C[C@]2(C)[C@H]3CC[C@@H]4[C@H]5[C@H](C(=O)/C=C/c6cccnc6)CC[C@]5(C(=O)O)CC[C@@]4(C)[C@]3(C)CC[C@@H]12 | 2.06 | 4.87
COc1cc2ncnc(-n3ncc4cc(NC(=O)Nc5ccccc5)ccc43)c2cc1OC | 1.3 | 4.4
Cn1cc(C2(C)CC(C)(C)c3c2n(C)c2ccccc32)c2ccccc21 (stereo not drawn) |  | > 100
COc1ccc(C(=O)c2cc(OC)c(OC)c(OC)c2)cc1/C=C/C(=O)c1ccc(F)cc1 | 6.2 | 31.1
COC(=O)C(Cc1nc2ccccc2[nH]c1=O)C(NO)C(=O)Nc1c(Cl)cc([N+](=O)[O-])cc1Cl (stereo not drawn) |  | 61.1
COC(=O)C(CC(=O)Nc1ccc(C)cc1)C(=O)C(=O)Nc1c(C(C)C)cccc1C(C)C (stereo not drawn) |  | > 100
CCOC(=O)C(=O)Nc1ccccc1CC |  | > 100
CN1CCc2nc(N)nc(-c3nc(N)nc4c3CN(C)CC4)c2C1 |  | > 100
COc1ccc(-c2cc(-c3cc(C)cc(Br)c3O)no2)cc1 |  | 99.7
COc1c(C(=O)/C=C/c2ccccc2)c(O)cc2occc12 | 6.12 | 20.8
O=C(N/N=C/c1cc(Br)ccc1O)N/N=C/c1cc(Br)ccc1O |  | > 100
CCCN(CCC)C(=O)c1c([N+](=O)[O-])cc(C(F)(F)F)cc1[N+](=O)[O-] |  | 73.3
COc1cc2[nH]c3c(c2cc1OC)CCN[C@]31CC[C@]2(CC3c4c(cc(OC)c(O)c42)CCN3C)C[C@H]1OC (stereo partly drawn) |  | > 100
c1ccc(C2N3CCCCC3[C@@H]3c4[nH]c5ccccc5c4CCN23)nc1 (stereo partly drawn) |  | > 100
C=CCCCCC/C=C\[C@@H](O)C#CC#C/C=C/CO | 43.6 | > 100
COc1ccc(CN2CC(C)(C)C2=O)c(OC)c1 |  | > 100
Nc1ccccc1/C(O)=C1/CCOC1=O |  | > 100
CCCCNC1CCCCC[C@H]1O (stereo partly drawn) |  | > 100
[N-]=[N+]=C1C(=O)NN=C1c1ccccc1 |  | > 100
COc1ccc2c3c([nH]c2c1[N+](=O)[O-])C(C)N(C)CC3 (stereo not drawn) |  | > 100
CCOC(=O)N[C@@H]1C(CC(=O)OC)O[C@H]2OC(C)(C)O[C@H]21 (stereo partly drawn) |  | > 100
Cc1cc(NC(=S)SCc2ccc(F)cc2)c([N+](=O)[O-])cc1C |  | 99.4
C=C(C)CCN[Si](c1ccccc1)(c1ccccc1)C(C)(C)C |  | 45.3
CC12OC(C(=O)C13CC3)C1C(=O)c3ccc4c(ccc5ccccc54)c3C(=O)C12 (stereo not drawn) | 24.2 | > 100
Cc1cc2ncnn2cc1Nc1ncc2c(n1)n(C1CCOCC1)c(=O)n2C | 14.3 | > 100
CN(Cc1ccccc1)C(=O)c1ccccc1C(=O)O |  | > 100
CNC(=S)/N=C(\N)N(C)C |  | > 10
CC(=O)C1Cn2c(nc3ccccc32)C[Se]1 (stereo not drawn) |  | 7.29
COC(=O)Nc1nc2ccc(C3(c4ccc(F)cc4)OCCO3)cc2[nH]1 | 1.14 | > 100
c1cnn(CN(Cn2cccn2)Cn2cccn2)c1 |  | > 100

Test system: CCRF-CEM leukemia
Experiment: NCI-60 cell line screen, 48 h

SMILES | GI50 [nM] | TGI [µM]
CC1(C)C(=O)/C(=C\c2cccnc2)C[C@]2(C)[C@H]3CC[C@@H]4[C@H]5[C@H](C(=O)/C=C/c6cccnc6)CC[C@]5(C(=O)O)CC[C@@]4(C)[C@]3(C)CC[C@@H]12 | 1440 | 8.07
COc1cc2ncnc(-n3ncc4cc(NC(=O)Nc5ccccc5)ccc43)c2cc1OC | 2560 | 13.6
Cn1cc(C2(C)CC(C)(C)c3c2n(C)c2ccccc32)c2ccccc21 (stereo not drawn) |  | > 100
COc1ccc(C(=O)c2cc(OC)c(OC)c(OC)c2)cc1/C=C/C(=O)c1ccc(F)cc1 | 2240 | 9.69
COC(=O)C(Cc1nc2ccccc2[nH]c1=O)C(NO)C(=O)Nc1c(Cl)cc([N+](=O)[O-])cc1Cl (stereo not drawn) |  | 65.3
COC(=O)C(CC(=O)Nc1ccc(C)cc1)C(=O)C(=O)Nc1c(C(C)C)cccc1C(C)C (stereo not drawn) |  | > 100
CCOC(=O)C(=O)Nc1ccccc1CC |  | > 100
O=C(N/N=C/c1cc(Br)ccc1O)N/N=C/c1cc(Br)ccc1O |  | > 100
CCCN(CCC)C(=O)c1c([N+](=O)[O-])cc(C(F)(F)F)cc1[N+](=O)[O-] |  | > 100
COc1cc2[nH]c3c(c2cc1OC)CCN[C@]31CC[C@]2(CC3c4c(cc(OC)c(O)c42)CCN3C)C[C@H]1OC (stereo partly drawn) |  | 26.7
c1ccc(C2N3CCCCC3[C@@H]3c4[nH]c5ccccc5c4CCN23)nc1 (stereo partly drawn) |  | > 100
COc1ccc(CN2CC(C)(C)C2=O)c(OC)c1 |  | > 100
Nc1ccccc1/C(O)=C1/CCOC1=O |  | > 100
CCCCNC1CCCCC[C@H]1O (stereo partly drawn) |  | > 100
[N-]=[N+]=C1C(=O)NN=C1c1ccccc1 |  | > 100
COc1ccc2c3c([nH]c2c1[N+](=O)[O-])C(C)N(C)CC3 (stereo not drawn) |  | 95.2
CCOC(=O)N[C@@H]1C(CC(=O)OC)O[C@H]2OC(C)(C)O[C@H]21 (stereo partly drawn) |  | > 100
C=C(C)CCN[Si](c1ccccc1)(c1ccccc1)C(C)(C)C |  | 66.4
CC12OC(C(=O)C13CC3)C1C(=O)c3ccc4c(ccc5ccccc54)c3C(=O)C12 (stereo not drawn) | 29500 | > 100
Cc1cc2ncnn2cc1Nc1ncc2c(n1)n(C1CCOCC1)c(=O)n2C | 4040 | > 100
CN(Cc1ccccc1)C(=O)c1ccccc1C(=O)O |  | > 100
CC(=O)C1Cn2c(nc3ccccc32)C[Se]1 (stereo not drawn) |  | > 100
COC(=O)Nc1nc2ccc(C3(c4ccc(F)cc4)OCCO3)cc2[nH]1 | 337 | > 100
c1cnn(CN(Cn2cccn2)Cn2cccn2)c1 |  | > 100

Test system: MALME-3M melanoma
Experiment: NCI-60 cell line screen, 48 h

SMILES | GI50 [nM] | TGI [µM]
CC1(C)C(=O)/C(=C\c2cccnc2)C[C@]2(C)[C@H]3CC[C@@H]4[C@H]5[C@H](C(=O)/C=C/c6cccnc6)CC[C@]5(C(=O)O)CC[C@@]4(C)[C@]3(C)CC[C@@H]12 | 2000 | 4.46
Cn1cc(C2(C)CC(C)(C)c3c2n(C)c2ccccc32)c2ccccc21 (stereo not drawn) |  | > 100
COc1ccc(C(=O)c2cc(OC)c(OC)c(OC)c2)cc1/C=C/C(=O)c1ccc(F)cc1 | 2760 | 8.87
COC(=O)C(Cc1nc2ccccc2[nH]c1=O)C(NO)C(=O)Nc1c(Cl)cc([N+](=O)[O-])cc1Cl (stereo not drawn) |  | > 100
COC(=O)C(CC(=O)Nc1ccc(C)cc1)C(=O)C(=O)Nc1c(C(C)C)cccc1C(C)C (stereo not drawn) |  | > 100
CCOC(=O)C(=O)Nc1ccccc1CC |  | > 100
CN1CCc2nc(N)nc(-c3nc(N)nc4c3CN(C)CC4)c2C1 |  | > 100
O=C(N/N=C/c1cc(Br)ccc1O)N/N=C/c1cc(Br)ccc1O |  | > 100
COc1cc2[nH]c3c(c2cc1OC)CCN[C@]31CC[C@]2(CC3c4c(cc(OC)c(O)c42)CCN3C)C[C@H]1OC (stereo partly drawn) |  | 36.3
C=CCCCCC/C=C\[C@@H](O)C#CC#C/C=C/CO | > 100000 | > 100
COc1ccc(CN2CC(C)(C)C2=O)c(OC)c1 |  | > 100
Nc1ccccc1/C(O)=C1/CCOC1=O |  | > 100
